Laboratory results published in patent US20260060947A1 (INSTITUT PASTEUR DE MONTEVIDEO, priority 2019, published 2026).
“Also recorded” adds a separate entry of the source.

Tests used:
NF-κB-p65 [1] = test: LPS-induced NF-κB-p65 nuclear translocation in BV2 cells (immunocytochemistry); format: cell-based, murine; settings: BANA 10, 20, 30 μM, BA 30 μM or DMF for 3 hrs before LPS 100 ng/ml
Protocol: The effect of BANA on nuclear translocation of NF-κB was studied by immunocytochemistry using murine microglia cell line BV2.
Cells were then treated with BANA (10, 20 and 30 μM) or B.A (30 μM) for 3 hrs. After treatment, cells were stimulated with LPS (100 ng/ml) for 30 minutes. Then, cells were washed and fixed with PFA 4% for 20 minutes at 4° C. and washed with PBS. Immunocytochemistry was performed as follows: cells were permeabilized using 0.5% Triton in PBS for 15 minutes, and then blocked using 5% of BSA for 1 h at room temperature. Rabbit anti-NF-κB-p65 (ab16502, 1/200) and mouse anti-CD11b (BD550219, 1/100) were incubated overnight at 4° C. After that, primary antibodies were removed, washed with PBS 3 times for 10 minutes, and Alexa-fluor-conjugated goat anti-rabbit or goat anti-mouse antibodies (1:1000) were incubated for 2 h at room temperature. After secondary antibodies were removed, cells were covered in glycerol mounting medium with 1/2000 DAPI staining. Cells were analyzed by confocal microscopy using a confocal ZEISS LSM 800. NF-κB-p65+ nuclei were counted and ratio of DAPI to NF-κB-p65 labeling was compared among groups. Data were analyzed using analyzing tools of ImageJ and GraphPad Prism 7 software.

[2] = LC50 in cell culture of SOD1^G93A adult microglia; format: cell-based; settings: rat
NF-kB = NF-kB activation after sciatic nerve section in NF-kB-RE-Luc mice (in vivo luminescence); parameters: species or system mouse; settings: oral 100 mg/kg/day day 0 to day 4, vs vehicle
Protocol: FIG. 17A: Scheme of the experimental design in which NF-kB-RE-Luc tg mice were treated with 100 mg/kg/day of BANA or vehicle starting immediately before sciatic nerve section (day 0) until day 4.
For NF-kB in vivo imaging studies, the NF-kB-RE-Luc random transgenic mouse model (Taconic, BALB/c-Tg(Rela-luc)31Xen) aged 6-8 weeks was used. These animals carry a transgene containing 6 NF-kB-responsive elements (RE) from the CMVα (immediate early) promoter placed upstream of a basal SV40 promoter, and a modified firefly luciferase cDNA (Promega pGL3). Animals were randomized divided into two groups and orally administrated with 100 mg/kg of BANA or Vehicle (phosphate buffer) starting immediately before sciatic nerve section in the right hindlimb and continuing for 4 days. At day 1, 2 and 4 post-surgery, differences in luciferase activity were compared between groups. To accomplish that, 150 mg/kg of the substrate D-luciferin (#K9918PE, XenoLight) dissolved in PBS, pH 7.4, was injected intraperitoneally to each mouse. […] Changes in NF-kB activity were quantified after comparing the differences of luminescence in the right hindlimb between groups, using ImageJ software.

NF-κB-p65 [3] = test: Nuclear NF-κB-p65 in perineuronal microglia of the spinal cord; format: in vivo, rat; settings: post-paralysis treatment for 15 days, 100 mg/kg/day
Protocol: FIG. 9A: Scheme of the experimental design. SOD1^G93A female rats were treated with 100 mg/kg/day of BANA or vehicle immediately after the first signs of paralysis onset of one hindlimb and continue for 15 days. Immunohistological analysis of the lumbar spinal cord of non-transgenic and vehicle- and BANA-treated SOD1^G93A symptomatic rats were performed.
FIG. 9C: Confocal images show NF-κB-p65 (green) and DAPI (red) expression in the ventral horn of the spinal cord of non-transgenic and symptomatic SOD1^G93A rats, treated with vehicle or BANA, in the surroundings of motor neurons (white dotted lines). Nuclei stained in yellow denote nuclear NF-κB-p65 and DAPI colocalization (white arrows). […] Data are expressed as mean±SEM; data were analyzed by the Kruskal-Wallis test followed by Dunn's multiple comparisons test, **p=0.0018, ***p=0.0003. n=4 animals per condition. Scale bar=20 μm.
At least 4 rats were analyzed for each immunohistochemistry experiment. Three different conditions were studied as follows: 1) non-transgenic (NonTg) rats of 160-180 days; 2) transgenic SOD1^G93A rats of 195-210 days treated with vehicle (paralysis, 15 d-vehicle) and 3) transgenic SOD1^G93A rats of 195-210 days treated with 50 or 100 mg/kg/day of BANA during 15 days. After treatment animals were deeply anesthetized and transcardial perfusion was performed with paraformaldehyde 4% (v/v) in PBS pH=7.4. […]

NF-κB-p65 [4] = test: LPS-induced NF-κB-p65 nuclear translocation in SOD1^G93A primary microglia; format: cell-based, rat; settings: BANA 10-30 μM before LPS
Protocol: FIG. 8D: Confocal images show CD11b-positive SOD1^G93A primary microglia (grey) treated with BANA, BA or vehicle, before LPS stimulation. […] Nuclear NF-κB-p65 colocalizing with DAPI nuclear staining is denoted in yellow.
Nuclear NF-κB-p65 colocalizing with DAPI nuclear staining is denoted in yellow. […] Scale bar=20 μm. […] 2 replicates of 3 independent experiments.
The effects of BANA on LPS- or TNFα-induced NF-κB activation were also assayed in cell cultures of BV2 microglial cell line and primary adult microglia isolated from symptomatic SOD1^G93A rats, and HT-29 NF-κB reporter cell line, respectively.

[5] = LC50 in cell culture of HT-29; format: cell-based; settings: human, HT-29 cells; HT-29 cell culture

O=C(O)c1ccc(/C=C/[N+](=O)[O-])cc1 [BANA, (E)-4-(2-nitrovinyl) benzoic acid]
LPS-induced NF-κB-p65 nuclear translocation (NF-κB-p65 [1]): potently prevented; also recorded: inhibits | CC50 [2]: 30 µM | NF-kB luminescence in right hindlimb after sciatic nerve section (NF-kB): significantly prevented | perineuronal microglia bearing NF-κB-p65-positive nuclei (NF-κB-p65 [3]): significant reduction | LPS-induced NF-κB-p65 nuclear translocation (NF-κB-p65 [4]): inhibits; also recorded: potently prevented | CC50 [5]: 80 µM
